Source: patent US20240190880A1 (THE REGENTS OF THE UNIVERSITY OF MICHIGAN, priority 2021, published 2024)
Read-outs that look alike come from different tables or passages of the source.

Target: T1, ER (Homo sapiens, UniProt P03372)
T1 construct: host or cells: T47D and MCF7 human breast cancer cells
T1 sequence (P03372 1-595): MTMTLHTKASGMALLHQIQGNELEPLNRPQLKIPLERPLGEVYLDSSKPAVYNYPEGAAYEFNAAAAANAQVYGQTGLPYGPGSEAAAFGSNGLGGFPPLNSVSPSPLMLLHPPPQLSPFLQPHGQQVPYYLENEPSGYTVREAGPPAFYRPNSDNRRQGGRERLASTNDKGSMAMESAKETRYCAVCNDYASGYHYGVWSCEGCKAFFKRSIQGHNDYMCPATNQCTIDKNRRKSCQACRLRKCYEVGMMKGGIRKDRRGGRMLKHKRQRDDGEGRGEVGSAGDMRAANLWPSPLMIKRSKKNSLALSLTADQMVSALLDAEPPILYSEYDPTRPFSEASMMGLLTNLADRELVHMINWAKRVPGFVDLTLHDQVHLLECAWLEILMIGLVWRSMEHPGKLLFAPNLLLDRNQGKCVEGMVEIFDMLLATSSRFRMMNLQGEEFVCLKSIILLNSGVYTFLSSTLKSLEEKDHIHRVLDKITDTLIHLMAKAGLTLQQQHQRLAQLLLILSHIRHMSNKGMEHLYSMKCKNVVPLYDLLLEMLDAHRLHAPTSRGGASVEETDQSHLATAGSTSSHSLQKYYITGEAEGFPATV
Experiment: ER degradation activity, in-cell western blot analysis in T47D cells
Assay type: cell-based
How it was run: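 Read-out is near-infrared fluorescence from an in-cell western, expressed as ER percentage relative to untreated and DMSO controls taken as 100%. T47D breast cancer cells received compound for 16 h in 0.5% DMSO.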

[1] = 16 hours, Table A does not say which cell line (T47D or MCF7), read-out: Potency (DC50)

C[C@@H]1Cc2cc(O)ccc2[C@@H](c2c(F)cc(N3CCC(N4CCC(C(=O)N5Cc6cc7c(cc6C5)C(=O)N(C5CCC(=O)NC5=O)C7)CC4)CC3)cc2F)N1CC(C)(F)F (stereo partly drawn) [E 30, 3-(6-(1′-(4-((1S,3R)-2-(2,2-difluoropropyl)-6-hydroxy-3-methyl-1,2,3,4-tetrahydroisoquinolin-1-yl)-3,5-difluorophenyl)-[1,4′-bipiperidine]-4-carbonyl)-1-oxo-3,5,6,7-tetrahydropyrrolo[3,4-f]isoindol-2(1H)-yl)piperidine-2,6-dione]
DC50 [1]: > 100 nM

C[C@@H]1Cc2c([nH]c3ccccc23)[C@H](c2c(F)cc(CN3CCC4(CCC(CN5Cc6cc7c(cc6C5)C(=O)N(C5CCC(=O)NC5=O)C7=O)CC4)CC3)cc2F)N1CC(F)F (stereo partly drawn) [E 381, 6-((3-(4-((1S,3R)-2-(2,2-difluoroethyl)-3-methyl-2,3,4,9-tetrahydro-1H-pyrido[3,4-b]indol-1-yl)-3,5-difluorobenzyl)-3-azaspiro[5.5]undecan-9-yl)methyl)-2-(2,6-dioxopiperidin-3-yl)-6,7-dihydropyrrolo[3,4-f]isoindole-1,3(2H,5H)-dione]
DC50 [1]: > 100 nM

O=C1CCC(N2C(=O)c3cc4c(cc3C2=O)CN(C2CCN(CC3CN(c5ccc([C@@H]6c7ccc(O)cc7CC[C@@H]6c6ccccc6)cc5)C3)CC2)C4)C(=O)N1 (stereo partly drawn) [E243, 2-(2,6-dioxopiperidin-3-yl)-6-(1-((1-(4-((1R,2S)-6-hydroxy-2-phenyl-1,2,3,4-tetrahydronaphthalen-1-yl)phenyl)azetidin-3-yl)methyl)piperidin-4-yl)-6,7-dihydropyrrolo[3,4-f]isoindole-1,3(2H,5H)-dione]
DC50 [1]: < 10 nM

O=C1CCC(N2Cc3cc4c(cc3C2=O)CN(C[C@H]2CC[C@H](C(=O)N3CC(Oc5ccc([C@@H]6c7ccc(O)cc7CC[C@@H]6c6ccccc6)cc5)C3)CC2)C4)C(=O)N1 (mixture of isomers) [E 499, 3-(6-(((IRS,4SR)-4-(3-(4-((1R,2S)-6-hydroxy-2-phenyl-1,2,3,4-tetrahydronaphthalen-1-yl)phenoxy)azetidine-1-carbonyl)cyclohexyl)methyl)-1-oxo-3,5,6,7-tetrahydropyrrolo[3,4-f]isoindol-2(1H)-yl)piperidine-2,6-dione]
DC50 (compounds 16 hours, Table A does not say whether T47D or MCF7, read-out: Potency (DC50)): 10 to 100 nM

O=C1CCC(N2Cc3cc4c(cc3C2=O)CN(CC2CCN(c3ccc([C@@H]5c6ccc(O)cc6CC[C@@H]5c5ccccc5)cc3)CC2)C4)C(=O)N1 (mixture of isomers) [E 1, Rac-3-(6-((1-(4-((1R,2S)-6-hydroxy-2-phenyl-1,2,3,4-tetrahydronaphthalen-1-yl)phenyl)piperidin-4-yl)methyl)-1-oxo-3,5,6,7-tetrahydropyrrolo[3,4-f]isoindol-2(1H)-yl)piperidine-2,6-dione]
DC50 [1]: > 100 nM

C[C@@H]1Cc2c([nH]c3ccccc23)[C@@H](c2c(F)cc(C3CCC(C(=O)N4CC(CN5Cc6cc7c(cc6C5)C(=O)N(C5CCC(=O)NC5=O)C7=O)C4)CC3)cc2F)N1CC(F)F (stereo partly drawn) [E250, 6-((1-(4-(4-((1R,3R)-2-(2,2-difluoroethyl)-3-methyl-2,3,4,9-tetrahydro-1H-pyrido[3,4-b]indol-1-yl)-3,5-difluorophenyl)cyclohexane-1-carbonyl)azetidin-3-yl)methyl)-2-(2,6-dioxopiperidin-3-yl)-6,7-dihydropyrrolo[3,4-f]isoindole-1,3(2H,5H)-dione]
DC50 [1]: < 10 nM

C[C@@H]1Cc2c([nH]c3ccccc23)[C@@H](c2c(F)cc(N3CC4(CCCN(CC(=O)N5Cc6cc7c(cc6C5)C(=O)N(C5CCC(=O)NC5=O)C7)C4)C3)cc2F)N1CC(F)F (stereo partly drawn) [E 106, 3-(6-(2-(2-(4-((1R,3R)-2-(2,2-difluoroethyl)-3-methyl-2,3,4,9-tetrahydro-1H-pyrido[3,4-b]indol-1-yl)-3,5-difluorophenyl)-2,6-diazaspiro[3.5]nonan-6-yl)acetyl)-1-oxo-3,5,6,7-tetrahydropyrrolo[3,4-f]isoindol-2(1H)-yl)piperidine-2,6-dione]
DC50 [1]: 10 to 100 nM
